Laboratory results as given in patent publication US20260259195A1, “REAL-TIME TRACKING OF APOPTOSIS” (FUNDACIÓ INSTITUT DE BIOENGINYERIA DE CATALUNYA (IBEC), priority 2022, published 2026).
“Also recorded” adds a separate entry of the source. Where two headings read alike, the source gives them in different places.

How the values were obtained:
[1] = system: GIST-T1 cell line; details: 16 h drug pre-treatment; for Percentage of TMRE positive cells, dose-response curve versus control: titration of combination A, 3 hours
[2] = system: GIST-T1/670 cell line; details: 16 h drug pre-treatment (imatinib 1000 nM, gefitinib 1000 nM); BIM peptide titration with digitonin
[3] = system: GIST-T1 cell line; assay: Real-time tracking of apoptosis (RTA) with flow cytometry; type: cell-based; details: 16 h drug pre-treatment; titration of combination A, 3 hours
[4] = system: GIST-T1/670 cell line; assay: as above; type: cell-based; details: 16 h drug pre-treatment; titration of combination A, 3 hours
[5] = system: GIST-T1 cells; details: 16 h drug pre-treatment; combination A gradient generated by the device
[6] = system: GIST-T1/670 cell line; assay: RTA with fluorescence microscopy (TMRE); type: cell-based; details: 16 h drug pre-treatment; titration of combination A, 3 hours
[7] = system: GIST-T1 cell line; details: 16 h drug pre-treatment (imatinib 1000 nM, gefitinib 1000 nM); BIM peptide titration with digitonin

Structure (SMILES)	Percentage of TMRE positive cells, dose-response curve versus control [1]	Percentage of cytochrome c retained, dose-response curve versus control [2]	Percentage of cytochrome c retained, dose-response curve versus control [3]	Percentage of cytochrome c retained, dose-response curve versus control [4]	Percentage of TMRE positive cells, dose-response curve versus control [5]	Percentage of TMRE positive cells, dose-response curve versus control [6]	Percentage of cytochrome c retained, dose-response curve versus control [7]	Δ% priming ([1]; microscopy RTA with combination A)
COc1cc2ncnc(Nc3ccc(F)c(Cl)c3)c2cc1OCCCN1CCOCC1 [gefitinib]	this was not observed	the same dose-response curve	produced the same curve as the control conditions	produced the same curve as the control conditions	the same response	produced an unaltered curve	showed a similar profile as the control	
Cc1ccc(NC(=O)c2ccc(CN3CCN(C)CC3)cc2)cc1Nc1nccc(-c2cccnc2)n1 [imatinib]	caused a shift of the curve identifying an increase in apoptotic priming; also recorded: induction of apoptotic priming					produced an unaltered curve		a clear increase in apoptotic priming; also recorded: increase of apoptotic priming
